# Key:
# ANXA4 = biological target: T1, ANXA4 (Homo sapiens, UniProt P09525); assay: NanoDSF thermal unfolding of ANXA4 with peptides; format: binding; details: peptide 200 μM, protein 40 µM; for Tm (°C): ramp 20-95°C, Ctrl 48.5; for ΔTm at 200 µM: versus Ctrl
# T1 construct: purchased Genscript lot N. U8886ED090-5/P3ED001
# T1 sequence (P09525 1-319): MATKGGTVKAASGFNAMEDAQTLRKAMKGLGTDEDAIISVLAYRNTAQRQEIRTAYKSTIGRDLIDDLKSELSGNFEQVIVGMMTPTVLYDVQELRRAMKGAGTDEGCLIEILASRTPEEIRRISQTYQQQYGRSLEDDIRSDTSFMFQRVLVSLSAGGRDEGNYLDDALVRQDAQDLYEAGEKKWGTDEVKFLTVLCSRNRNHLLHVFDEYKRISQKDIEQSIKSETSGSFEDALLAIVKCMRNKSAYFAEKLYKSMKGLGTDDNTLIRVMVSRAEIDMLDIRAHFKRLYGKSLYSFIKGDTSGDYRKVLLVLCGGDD
# Procedure: The assay was carried out in PBS (pH 7.4, 5 mM CaCl2) buffer using 40 μM of protein and 200 μM of compounds. The samples were loaded into nanoDSF Grade Standard Capillaries (NanoTemper Technologies) and analyzed using the Prometheus NT.48 nanoDSF device (NanoTemper Technologies). Thermal unfolding of the protein was monitored using a linear thermal ramp (1°C/min; 20°C–95°C) with an excitation power of 90%. […] In control, the sample was replaced with buffer solution. Three independent measurements were carried out for each compound, and their mean is depicted. The fluorescence intensity ratio and its first derivative were calculated with the manufacturer’s software (PR.ThermControl, version 2.1.2).
# NanoDSF is an advanced differential scanning fluorimetry method for measuring melting temperature (Tm) of peptide-protein complex. In nanoDSF, a protein in solution is exposed to a temperature gradient that leads to the unfolding of the protein. The intrinsic fluorescence of the protein, mainly originating from the aromatic sidechains of tyrosine and tryptophan residues, is examined. Upon unfolding, the environment of those residues alters because they become exposed to the solvent and, thus, their fluorescence intensity changes. The relation between fluorescence intensity changes and temperature gradient can be used to obtain a so-called apparent Tm.
# A549 cells = format: cell-based; details: peptide (100 μM) + paclitaxel (800 nM); 72 h
# Procedure: A549 were grown in appropriate medium (Sigma Aldrich, St. Louis, MO) supplemented with 10% fetal bovine serum (FBS) (Sigma Aldrich, St. Louis, MO), 1% penicillin/streptomycin (Sigma Aldrich, St. Louis, MO) at 37°C in a 5% CO2 incubator. A549, adenocarcinoma cells line, were treated using a combo of paclitaxel (800 nM, PTX) and peptides (10 μM, 50 μM, 100 µM). After 24, 48, and 72 h, 10 μL/well of CTG detection mix, from CellTiter-Glo Assay Kit (Promega Corp, Madison, United States), were added; plates were gently mixed, incubated for 10 min in the dark, and read using EnVision Multilabel 2103.  FIGURE 8 Inhibition of A549 cell viability in cells treated with paclitaxel (800 nM) and peptides 1–8 (100 μM). Cells were plated in triplicate in 384-well plates and treated with PTX and peptides (DMSO was used as a […] control) for 24, 48, or 72 h. Cell viability was measured using CellTiter assay as described in the Materials and Methods section. Cell viability was expressed as a percentage of control and each column represents the mean ± SD of three independent experiments.
# [1] = tested on: Annexin A4 translocation in A549 and Calu-2 lung cancer cells; set-up: method as in Gaudio et al., 2013; details: A549 and Calu-2 lung cancer cells treated with paclitaxel; ref Gaudio et al., 2013; cited from earlier work
# [2] = biological target: T2, His-tag-ANXA4 (annexin A4) (UniProt P09525 1-319, in MST only: labelled with His-Tag Labeling Kit RED-tris-NTA (NT647 fluorophore)); assay: SPR; Biacore T200; His-tag-ANXA4 captured on anti-histidine antibody coupled to CM5 chip; peptide 0.08-5 uM injected at 25 C, 30 uL/min, 120 s association, 600 s dissociation; HBS-P+ pH 7.4 with 5 mM CaCl2; global 1:1 fit, KD = kd/ka; details: both partners purified
# T2 construct: annexin A4 (ANXA4); Probably human ANXA4, since the work is on human lung cancer cells; also called NT647-ANXA4; ANX4; source: expressed by Genscript (lot N. U8886ED090-5/P3ED001); not shown: His6, C-terminal, kept
# T2 sequence (looked up): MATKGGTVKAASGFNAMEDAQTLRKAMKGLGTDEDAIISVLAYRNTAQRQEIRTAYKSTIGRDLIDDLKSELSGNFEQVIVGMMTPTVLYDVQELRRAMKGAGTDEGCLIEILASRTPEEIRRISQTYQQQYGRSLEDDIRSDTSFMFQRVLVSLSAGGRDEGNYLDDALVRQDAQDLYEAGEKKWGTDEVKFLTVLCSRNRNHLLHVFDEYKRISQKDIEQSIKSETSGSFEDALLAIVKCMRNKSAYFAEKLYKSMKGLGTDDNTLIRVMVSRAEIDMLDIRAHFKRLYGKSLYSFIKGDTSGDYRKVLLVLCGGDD
# [3] = biological target: T2, His-tag-ANXA4 (annexin A4); assay: MST; Monolith NT.115pico; 40 nM NT647-labelled ANXA4 mixed 1:1 with serial dilutions of peptide (highest 50 uM); PBS pH 7.4, 5 mM CaCl2; 10 min at rt; standard-treated capillaries, high MST power, LED 10%; duplicates; details: both partners purified
# [4] = biological target: T3, His-tag-ANXA4 (annexin A4) (UniProt P09525 1-319, in MST only: labelled with His-Tag Labeling Kit RED-tris-NTA (NT647 fluorophore)); assay: SPR
# T3 chain: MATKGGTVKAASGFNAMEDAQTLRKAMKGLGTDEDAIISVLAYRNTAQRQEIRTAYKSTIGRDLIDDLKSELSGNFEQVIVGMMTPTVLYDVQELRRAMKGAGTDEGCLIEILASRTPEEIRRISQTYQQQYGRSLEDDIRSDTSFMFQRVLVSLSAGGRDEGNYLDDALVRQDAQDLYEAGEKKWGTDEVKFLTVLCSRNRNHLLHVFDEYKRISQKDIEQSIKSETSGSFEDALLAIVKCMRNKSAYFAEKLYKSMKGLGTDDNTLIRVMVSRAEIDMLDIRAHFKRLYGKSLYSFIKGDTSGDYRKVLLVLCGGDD
molecule,measurement,setting,value
"Ac-AHLIKPS-NH2 [peptide 8, AHLIKPS]",Tm (°C),ANXA4,48.9 °C
same,ΔTm at 200 µM,ANXA4,0.4 °C
same,Biological activity in combination with paclitaxel compared to reference peptide 1 (in words),A549 cells,decrease of cell viability compared to reference peptide 1
"Ac-QALIKPS-NH2 [peptide 7, QALIKPS]",Tm (°C),ANXA4,49.1 °C
same,ΔTm at 200 µM,ANXA4,0.6 °C
same,Biological activity in combination with paclitaxel compared to reference peptide 1 (in words),A549 cells,slightly improves the paclitaxel cytotoxicity
"Ac-QHAIKPS-NH2 [peptide 6, QHAIKPS]",Tm (°C),ANXA4,48.9 °C
same,ΔTm at 200 µM,ANXA4,0.4 °C
same,Biological activity in combination with paclitaxel compared to reference peptide 1 (in words),A549 cells,slightly improves the paclitaxel cytotoxicity
"Ac-QHLAKPS-NH2 [compound 5, QHLAKPS]",Tm (°C),ANXA4,49.2 °C
same,ΔTm at 200 µM,ANXA4,0.7 °C
"Ac-QHLIAPS-NH2 [peptide 4, QHLIAPS]",Tm (°C),ANXA4,49.2 °C
same,ΔTm at 200 µM,ANXA4,0.7 °C
"Ac-QHLIKAS-NH2 [peptide 3, QHLIKAS]",ΔTm at 200 µM,ANXA4,0.5 °C
"Ac-QHLIKPA-NH2 (N-terminus and C-terminus assumed) [peptide 2, QHLIKPA]",Tm (°C),ANXA4,48.7 °C
same,ΔTm at 200 µM,ANXA4,0.2 °C
same,Biological activity in combination with paclitaxel compared to reference peptide 1 (in words),A549 cells,basically preserves the biological activity
"Ac-QHLIKPS-NH2 [peptide 1, QHLIKPS]",Tm (°C),ANXA4,48.6 °C
same,ΔTm at 200 µM,ANXA4,0.1 °C
same,Inhibition of Annexin A4 translocation from cytosol to plasma membrane,[1],inhibiting Annexin A4 translocation from cytosol to plasma membrane
"Ac-QHLIKPS-NH2 (FHIT (fragile histidine triad protein), residues 7-13; also called FHIT (7-13); lead peptide; source: synthetic peptide (Fmoc solid phase, RP-HPLC purified)) [FHIT mimetic peptide 7-13 (peptide 1)]",Kd,[2],0.84 ± 0.05 µM
same,Kd,[3],4.65 µM
same,Kd,[4],1.26 µM
"Ac-QHLIKPA-NH2 (FHIT residues 7-13 with Ser7 of the peptide replaced by Ala; numbers count on: the peptide (residue 1 = Gln7 of FHIT); Ser7 is S13 of FHIT; also called analogue 2; source: synthetic peptide (Fmoc solid phase, RP-HPLC purified)) [peptide 2 (QHLIKPA)]",Kd,[2],0.552 ± 0.08 µM
same,Kd,[3],0.218 µM
"Ac-QHLIKAS-NH2 (FHIT residues 7-13 with Pro6 of the peptide replaced by Ala; numbers count on: the peptide (residue 1 = Gln7 of FHIT); Pro6 is P12 of FHIT; also called analogue 3; source: synthetic peptide (Fmoc solid phase, RP-HPLC purified)) [peptide 3 (QHLIKAS)]",Kd,[2],0.375 ± 0.02 µM
same,Kd,[3],0.014 µM
"Ac-QHLIAPS-NH2 (FHIT residues 7-13 with Lys5 of the peptide replaced by Ala; numbers count on: the peptide (residue 1 = Gln7 of FHIT); Lys5 is K11 of FHIT; also called analogue 4; source: synthetic peptide (Fmoc solid phase, RP-HPLC purified)) [peptide 4 (QHLIAPS)]",Kd,[2],0.053 ± 0.01 µM
same,Kd,[3],0.146 µM
"Ac-QHLAKPS-NH2 (FHIT residues 7-13 with Ile4 of the peptide replaced by Ala; numbers count on: the peptide (residue 1 = Gln7 of FHIT); Ile4 is I10 of FHIT; also called analogue 5; source: synthetic peptide (Fmoc solid phase, RP-HPLC purified)) [peptide 5 (QHLAKPS)]",Kd,[3],1.41 µM
"Ac-QHAIKPS-NH2 (FHIT residues 7-13 with Leu3 of the peptide replaced by Ala; numbers count on: the peptide (residue 1 = Gln7 of FHIT); Leu3 is L9 of FHIT; also called derivative 6; source: synthetic peptide (Fmoc solid phase, RP-HPLC purified)) [peptide 6 (QHAIKPS)]",Kd,[3],6.4 µM
"Ac-QALIKPS-NH2 (FHIT residues 7-13 with His2 of the peptide replaced by Ala; numbers count on: the peptide (residue 1 = Gln7 of FHIT); His2 is H8 of FHIT; also called derivative 7; source: synthetic peptide (Fmoc solid phase, RP-HPLC purified)) [peptide 7 (QALIKPS)]",Kd,[2],0.85 ± 0.055 µM
same,Kd,[3],1.13 µM
"Ac-AHLIKPS-NH2 (FHIT residues 7-13 with Gln1 of the peptide replaced by Ala; numbers count on: the peptide (residue 1 = Gln7 of FHIT); Gln1 is Q7 of FHIT; also called analogue 8; source: synthetic peptide (Fmoc solid phase, RP-HPLC purified)) [peptide 8 (AHLIKPS)]",Kd,[2],1.52 ± 0.33 µM
same,Kd,[3],3.04 µM

# — article PMC8655160, “Overcome Chemoresistance: Biophysical and Structural Analysis of Synthetic FHIT-Derived Peptides” (Frontiers in Molecular Biosciences, 2021)
